# In patent publication US20020137929A1, “1 - (3-heterocyclylphenyl) isothiourea, -isourea, -guanidine and -amidine herbicidal agents” (Intellectual Property Department, BASF Aktiengesellschaft, priority 1998, published 2002):
# How the values were obtained:
# ECHCG (Barnyardgrass) = test: Preemergence herbicidal evaluation; type: in vivo, Echinochloa crus-galli; conditions: rated 4-5 weeks after treatment
# How it was run: (§1)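 Test compound, dissolved in aqueous acetone, was sprayed over planted soil cups at an equivalent of about 0.0156 to 0.500 kg/ha; seeds had been mixed with potting soil. Greenhouse growth followed, with visual 0-9 scoring of injury at four to five weeks.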
# ABUTH (Velvetleaf) [1] = test: Preemergence herbicidal evaluation; type: in vivo, Abutilon theophrasti; conditions: rated 4-5 weeks after treatment
# How it was run: as §1
# SETVI (Foxtail, Green) = test: Postemergence herbicidal evaluation; type: in vivo, Setaria viridis; conditions: for SETVI herbicidal rating: postemergence
# How it was run: (§2)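 First, seedlings were raised for around two weeks. Next, test material in 50/50 acetone/water containing 0.5% TWEEN 20 was sprayed through a nozzle at 40 psi, equivalent to about 0.0156–0.500 kg/ha. Finally, after 4–5 weeks in the greenhouse, plants were rated 0–9.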
# AMBEL (Ragweed, Common) = test: Preemergence herbicidal evaluation; type: in vivo, Ambrosia artemisifolia; conditions: rated 4-5 weeks after treatment
# How it was run: as §1
# [2] = test system: ECHORC (Watergrass (Calif.)); test: Preemergence weed control under flooded paddy conditions; type: in vivo, Echinochloa oryzoides; conditions: rated 3-4 weeks after treatment
# How it was run: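 Ratings on a 0-9 visual scale cover stand, vigor, malformation, size, chlorosis and overall appearance relative to a control, taken three to four weeks post-treatment. Application was into flood water over freshly sown silt loam at roughly 0.0313 to 0.500 kg/ha.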
# ZEAMX (Corn, Field) = test: Postemergence herbicidal evaluation; type: in vivo, Zea mays; conditions: for ZEAMX herbicidal rating: postemergence
# How it was run: as §2
# CASOB (Sicklepod) = test: Preemergence herbicidal evaluation; type: in vivo, Cassia obtusifolia; conditions: rated 4-5 weeks after treatment
# How it was run: as §1
# ABUTH (Velvetleaf) [3] = test: Postemergence herbicidal evaluation; type: in vivo, Abutilon theophrasti; conditions: for ABUTH herbicidal rating: postemergence
# How it was run: as §2
# [4] = test system: ECHORC (Watergrass (Calif.)); test: Postemergence weed control under flooded paddy conditions; type: in vivo, Echinochloa oryzoides; conditions: postemergence weeds, 3-4 weeks after treatment
# How it was run: (§3)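 Flood-water application, about 0.0313–0.500 kg/ha a.i. in aqueous/acetone 50/50 v/v; water depth 1.5–3 cm throughout. Weeds 3–5 cm, rice 1.5–2.5 leaf. Greenhouse; 0–9 visual rating vs control at 3–4 wk.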
# CYPSE (Flatsedge) = test: Preemergence weed control under flooded paddy conditions; type: in vivo, Cyperus serotinus; conditions: rated 3-4 weeks after treatment
# How it was run: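 Values are visual 0-9 scores against a control for a preemergence application into paddy flood water at about 0.0313 to 0.500 kg/ha. Greenhouse duration was three to four weeks.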
# [5] = test system: IPOHE (Morningglory, Ivyleaf); test: Preemergence herbicidal evaluation; type: in vivo, Ipomoea hederacea; conditions: rated 4-5 weeks after treatment
# How it was run: as §1
# CYPIR (Rice Flatsedge) = test: Postemergence weed control under flooded paddy conditions; type: in vivo, Cyperus iria; conditions: postemergence weeds, 3-4 weeks after treatment
# How it was run: as §3
# [6] = test system: IPOHE (Morningglory, Ivyleaf); test: Postemergence herbicidal evaluation; type: in vivo, Ipomoea hederacea; conditions: for IPOHE herbicidal rating: postemergence
# How it was run: as §2
# [7] = test system: GLXMAW (Soybean, Williams); test: Postemergence herbicidal evaluation; type: in vivo, Glycine max, (L.) Merr. cv Williams; conditions: for GLXMAW herbicidal rating: postemergence
# How it was run: as §2
compound,measurement,setting,value
"Cn1c(C(F)(F)F)cc(=O)n(-c2cc(N=C3SCC(=O)N3CCC(=O)O)c(Cl)cc2F)c1=O [Compound 31, 2-{{2-Chloro-5-[3,6-dihydro-3-methyl-2,6-dioxo-4-(trifluoromethyl)-1(2H)-pyrimidinyl]-4-fluoro-phenyl}imino}-4-oxo-3-thiazolidinepropionic acid]",Preemergence herbicidal rating ECHCG,ECHCG (Barnyardgrass); rate 0.0625 kg/ha,0.0
same,Preemergence herbicidal rating ECHCG,ECHCG (Barnyardgrass); rate 0.1250 kg/ha,9.0
same,Preemergence herbicidal rating ECHCG,ECHCG (Barnyardgrass); rate 0.2500 kg/ha,9.0
same,Preemergence herbicidal rating ABUTH,ABUTH (Velvetleaf) [1]; rate 0.0625 kg/ha,0.0
same,Preemergence herbicidal rating ABUTH,ABUTH (Velvetleaf) [1]; rate 0.1250 kg/ha,9.0
same,Preemergence herbicidal rating ABUTH,ABUTH (Velvetleaf) [1]; rate 0.2500 kg/ha,9.0
same,Postemergence herbicidal rating SETVI,"SETVI (Foxtail, Green); Rate 0.0158 kg/ha",0.0
same,Postemergence herbicidal rating SETVI,"SETVI (Foxtail, Green); Rate 0.0315 kg/ha",0.0
same,Postemergence herbicidal rating SETVI,"SETVI (Foxtail, Green); Rate 0.0630 kg/ha",7.0
same,Preemergence herbicidal rating AMBEL,"AMBEL (Ragweed, Common); rate 0.0625 kg/ha",0.0
same,Preemergence herbicidal rating AMBEL,"AMBEL (Ragweed, Common); rate 0.1250 kg/ha",4.0
same,Preemergence herbicidal rating AMBEL,"AMBEL (Ragweed, Common); rate 0.2500 kg/ha",9.0
same,Herbicidal rating ECHORC,[2]; 0.0625 kg/ha,1.0
same,Herbicidal rating ECHORC,[2]; 0.1250 kg/ha,2.0
same,Herbicidal rating ECHORC,[2]; 0.2500 kg/ha,5.0
same,Postemergence herbicidal rating ZEAMX,"ZEAMX (Corn, Field); Rate 0.0158 kg/ha",7.0
same,Postemergence herbicidal rating ZEAMX,"ZEAMX (Corn, Field); Rate 0.0315 kg/ha",7.5
same,Postemergence herbicidal rating ZEAMX,"ZEAMX (Corn, Field); Rate 0.0630 kg/ha",8.0
same,Preemergence herbicidal rating CASOB,CASOB (Sicklepod); rate 0.0625 kg/ha,0.0
same,Preemergence herbicidal rating CASOB,CASOB (Sicklepod); rate 0.1250 kg/ha,2.0
same,Preemergence herbicidal rating CASOB,CASOB (Sicklepod); rate 0.2500 kg/ha,1.0
same,Postemergence herbicidal rating ABUTH,ABUTH (Velvetleaf) [3]; Rate 0.0158 kg/ha,9.0
same,Postemergence herbicidal rating ABUTH,ABUTH (Velvetleaf) [3]; Rate 0.0315 kg/ha,9.0
same,Postemergence herbicidal rating ABUTH,ABUTH (Velvetleaf) [3]; Rate 0.0630 kg/ha,9.0
same,Herbicidal rating ECHORC,[4]; rate 0.0625 kg/ha,1.0
same,Herbicidal rating ECHORC,[4]; rate 0.1250 kg/ha,2.0
same,Herbicidal rating ECHORC,[4]; rate 0.2500 kg/ha,5.0
same,Herbicidal rating CYPSE,CYPSE (Flatsedge); 0.0625 kg/ha,0.0
same,Herbicidal rating CYPSE,CYPSE (Flatsedge); 0.1250 kg/ha,0.0
same,Herbicidal rating CYPSE,CYPSE (Flatsedge); 0.2500 kg/ha,0.0
same,Preemergence herbicidal rating IPOHE,[5]; rate 0.0625 kg/ha,0.0
same,Preemergence herbicidal rating IPOHE,[5]; rate 0.1250 kg/ha,5.0
same,Preemergence herbicidal rating IPOHE,[5]; rate 0.2500 kg/ha,9.0
same,Herbicidal rating CYPIR,CYPIR (Rice Flatsedge); rate 0.0625 kg/ha,0.0
same,Herbicidal rating CYPIR,CYPIR (Rice Flatsedge); rate 0.1250 kg/ha,0.0
same,Herbicidal rating CYPIR,CYPIR (Rice Flatsedge); rate 0.2500 kg/ha,2.5
same,Postemergence herbicidal rating IPOHE,[6]; Rate 0.0158 kg/ha,9.0
same,Postemergence herbicidal rating IPOHE,[6]; Rate 0.0315 kg/ha,9.0
same,Postemergence herbicidal rating IPOHE,[6]; Rate 0.0630 kg/ha,9.0
same,Postemergence herbicidal rating GLXMAW,[7]; Rate 0.0158 kg/ha,6.5
same,Postemergence herbicidal rating GLXMAW,[7]; Rate 0.0315 kg/ha,6.5
same,Postemergence herbicidal rating GLXMAW,[7]; Rate 0.0630 kg/ha,7.0
"COC(=O)CN1C(=O)CSC1=Nc1cc(-n2c(=O)cc(C(F)(F)F)n(C)c2=O)c(F)cc1Cl [Compound 17, Methyl 2-{{2-chloro-5-[3,6-dihydro-3-methyl-2,6-dioxo-4-(trifluoromethyl)-1(2H)-pyrimidinyl]-4-fluorophenyl}imino}-4-oxo-3-thiazolidineacetate]",ECHCG preemergence herbicidal rating,ECHCG (Barnyardgrass); rate 0.0156 kg/ha,0.5
same,ECHCG preemergence herbicidal rating,ECHCG (Barnyardgrass); rate 0.0313 kg/ha,0.7
same,ECHCG preemergence herbicidal rating,ECHCG (Barnyardgrass); rate 0.0625 kg/ha,1.0
same,ECHCG preemergence herbicidal rating,ECHCG (Barnyardgrass); rate 0.1250 kg/ha,0.7
same,ECHCG preemergence herbicidal rating,ECHCG (Barnyardgrass); rate 0.2500 kg/ha,4.3
same,ECHCG preemergence herbicidal rating,ECHCG (Barnyardgrass); rate 0.5000 kg/ha,9.0
same,ABUTH preemergence herbicidal rating,ABUTH (Velvetleaf) [1]; rate 0.0156 kg/ha,0.0
same,ABUTH preemergence herbicidal rating,ABUTH (Velvetleaf) [1]; rate 0.0313 kg/ha,4.0
same,ABUTH preemergence herbicidal rating,ABUTH (Velvetleaf) [1]; rate 0.0625 kg/ha,9.0
same,ABUTH preemergence herbicidal rating,ABUTH (Velvetleaf) [1]; rate 0.1250 kg/ha,9.0
same,ABUTH preemergence herbicidal rating,ABUTH (Velvetleaf) [1]; rate 0.2500 kg/ha,9.0
same,ABUTH preemergence herbicidal rating,ABUTH (Velvetleaf) [1]; rate 0.5000 kg/ha,9.0
same,SETVI herbicidal rating,"SETVI (Foxtail, Green); rate 0.0156 kg/ha",2.0
same,SETVI herbicidal rating,"SETVI (Foxtail, Green); rate 0.0313 kg/ha",2.5
same,SETVI herbicidal rating,"SETVI (Foxtail, Green); rate 0.0625 kg/ha",4.0
same,SETVI herbicidal rating,"SETVI (Foxtail, Green); rate 0.1250 kg/ha",5.5
same,AMBEL preemergence herbicidal rating,"AMBEL (Ragweed, Common); rate 0.0156 kg/ha",0.0
same,AMBEL preemergence herbicidal rating,"AMBEL (Ragweed, Common); rate 0.0313 kg/ha",0.7
same,AMBEL preemergence herbicidal rating,"AMBEL (Ragweed, Common); rate 0.0625 kg/ha",1.7
same,AMBEL preemergence herbicidal rating,"AMBEL (Ragweed, Common); rate 0.1250 kg/ha",4.3
same,AMBEL preemergence herbicidal rating,"AMBEL (Ragweed, Common); rate 0.2500 kg/ha",6.7
same,AMBEL preemergence herbicidal rating,"AMBEL (Ragweed, Common); rate 0.5000 kg/ha",9.0
same,Herbicidal rating ECHORC,[2]; 0.0313 kg/ha,4.0
same,Herbicidal rating ECHORC,[2]; 0.0625 kg/ha,9.0
same,Herbicidal rating ECHORC,[2]; 0.1250 kg/ha,9.0
same,Herbicidal rating ECHORC,[2]; 0.2500 kg/ha,9.0
same,ZEAMX herbicidal rating,"ZEAMX (Corn, Field); rate 0.0156 kg/ha",7.0
same,ZEAMX herbicidal rating,"ZEAMX (Corn, Field); rate 0.0313 kg/ha",7.3
same,ZEAMX herbicidal rating,"ZEAMX (Corn, Field); rate 0.0625 kg/ha",7.8
same,ZEAMX herbicidal rating,"ZEAMX (Corn, Field); rate 0.1250 kg/ha",7.8
same,CASOB preemergence herbicidal rating,CASOB (Sicklepod); rate 0.0156 kg/ha,0.0
same,CASOB preemergence herbicidal rating,CASOB (Sicklepod); rate 0.0313 kg/ha,0.7
same,CASOB preemergence herbicidal rating,CASOB (Sicklepod); rate 0.0625 kg/ha,0.7
same,CASOB preemergence herbicidal rating,CASOB (Sicklepod); rate 0.1250 kg/ha,0.0
same,CASOB preemergence herbicidal rating,CASOB (Sicklepod); rate 0.2500 kg/ha,3.7
same,CASOB preemergence herbicidal rating,CASOB (Sicklepod); rate 0.5000 kg/ha,7.0
same,ABUTH herbicidal rating,ABUTH (Velvetleaf) [3]; rate 0.0156 kg/ha,9.0
same,ABUTH herbicidal rating,ABUTH (Velvetleaf) [3]; rate 0.0313 kg/ha,9.0
same,ABUTH herbicidal rating,ABUTH (Velvetleaf) [3]; rate 0.0625 kg/ha,9.0
same,ABUTH herbicidal rating,ABUTH (Velvetleaf) [3]; rate 0.1250 kg/ha,9.0
same,Herbicidal rating ECHORC,[4]; rate 0.0313 kg/ha,4.0
same,Herbicidal rating ECHORC,[4]; rate 0.0625 kg/ha,9.0
same,Herbicidal rating ECHORC,[4]; rate 0.1250 kg/ha,9.0
same,Herbicidal rating ECHORC,[4]; rate 0.2500 kg/ha,9.0
same,Herbicidal rating CYPSE,CYPSE (Flatsedge); 0.0313 kg/ha,9.0
same,Herbicidal rating CYPSE,CYPSE (Flatsedge); 0.0625 kg/ha,9.0
same,Herbicidal rating CYPSE,CYPSE (Flatsedge); 0.1250 kg/ha,9.0
same,Herbicidal rating CYPSE,CYPSE (Flatsedge); 0.2500 kg/ha,9.0
same,IPOHE preemergence herbicidal rating,[5]; rate 0.0156 kg/ha,0.5
same,IPOHE preemergence herbicidal rating,[5]; rate 0.0313 kg/ha,0.7
same,IPOHE preemergence herbicidal rating,[5]; rate 0.0625 kg/ha,4.0
same,IPOHE preemergence herbicidal rating,[5]; rate 0.1250 kg/ha,5.7
same,IPOHE preemergence herbicidal rating,[5]; rate 0.2500 kg/ha,9.0
same,IPOHE preemergence herbicidal rating,[5]; rate 0.5000 kg/ha,9.0
same,Herbicidal rating CYPIR,CYPIR (Rice Flatsedge); rate 0.0313 kg/ha,0.0
same,Herbicidal rating CYPIR,CYPIR (Rice Flatsedge); rate 0.0625 kg/ha,0.0
same,Herbicidal rating CYPIR,CYPIR (Rice Flatsedge); rate 0.1250 kg/ha,6.0
same,Herbicidal rating CYPIR,CYPIR (Rice Flatsedge); rate 0.2500 kg/ha,9.0
same,IPOHE herbicidal rating,[6]; rate 0.0156 kg/ha,7.0
same,IPOHE herbicidal rating,[6]; rate 0.0313 kg/ha,8.5
same,IPOHE herbicidal rating,[6]; rate 0.0625 kg/ha,9.0
same,IPOHE herbicidal rating,[6]; rate 0.1250 kg/ha,9.0
same,GLXMAW herbicidal rating,[7]; rate 0.0156 kg/ha,4.3
same,GLXMAW herbicidal rating,[7]; rate 0.0313 kg/ha,5.5
same,GLXMAW herbicidal rating,[7]; rate 0.0625 kg/ha,5.8
same,GLXMAW herbicidal rating,[7]; rate 0.1250 kg/ha,7.5
